In US12012394B2, “Alpha-synuclein ligands” (Washington University, priority 2018, dated 2024):

Target: Banner PD-seeded α-synuclein fibrils (Homo sapiens (Human), UniProt P37840)
Test: Homologous competition radioligand binding assay, PD-seeded fibrils
Conditions: 150 nM Banner PD seeded fibrils
Method: The equilibrium dissociation constant (Kd) for a series of compounds was determined using direct radioactive competitive binding assays (homologous or heterologous) with either recombinant α-synuclein fibrils or brain tissue homogenates from AD cases.
Recombinant protein was produced in E. coli using protocols based on previously described methods for α-synuclein [Giasson, B. I., et al., “Mutant and wild type human alpha-synucleins assemble into elongated filaments with distinct morphologies in vitro,” 1999, J Biol. Chem., 274:7619-7622; Huang, C., et al., “A new method for purification of recombinant human alpha-synuclein in Escherichia coli,” 2005, Protein Expr Purif, 42:173-177; Yu, L., et al, “Synthesis and in vitro evaluation of á-synuclein ligands,” 2012, Bioorg. Med. Chem., 20:4625-4634] and tau [Li, W., et al., “Characterization of two VQIXXK motifs for tau fibrillization in vitro,” 2006, Biochemistry, 45:15692-15701]. BL21(DE3)RIL E. coli were transformed with a pRK172 bacterial expression plasmid containing the human α-synuclein coding sequence. […]. Overnight cultures were centrifuged at 3,900×g for 10 min at 25° C. and the bacterial pellets were resuspended by gentle vortexing in 20 ml osmotic shock buffer (30 mM Tris-HCl, 2 mM EDTA, 40% Sucrose, pH 7.2) and then incubated at room temperature for 10 min. The cell suspension was then centrifuged at 8,000×g for 10 min at 25° C. and the pellet was resuspended in 22.5 ml cold H2O before adding 9.4 μl 2 M MgCl2 to each tube. The suspension was incubated on ice for 3 min prior to centrifugation at 20,000×g for 15 min at 4° C. After the supernatant was transferred to a fresh tube, streptomycin was added to a final concentration of 10 mg/ml and centrifuged at 20,000×g for 15 min at 4° C. The supernatant from this step was collected and dithiothreitol (DTT) and Tris-HCl pH 8.0 were added to final concentrations of 1 mM and 20 mM respectively, before boiling for 10 min to precipitate heat-sensitive proteins, which were pelleted at 20,000×g for 15 min at 4° C. The supernatant was collected and filtered through a 0.45 μm surfactant-free cellulose acetate filter (Corning) before loading onto a 1 ml DEAE Sepharose column equilibrated in 20 mM Tris-HCl pH 8.0, 1 mM EDTA, and 1 mM DTT. The DEAE column was washed with 20 mM Tris-HCl pH 8.0, 1 mM EDTA, 1 mM DTT before eluting α-synuclein protein in 20 mM Tris-HCl pH 8.0 buffer with 1 mM EDTA, 1 mM DTT and 0.3 M NaCl. Purified α-synuclein protein was dialyzed overnight in 10 mM Tris-HCl pH 7.6, 50 mM NaCl, 1 mM DTT.
Purified recombinant α-synuclein monomer (2 mg/ml) was incubated in 20 mM Tris-HCl, pH 8.0, 100 mM NaCl for 72 h at 37 C with shaking at 1000 rpm in an Eppendorf Thermomixer. […] The concentration of α-synuclein monomer in the supernatant was determined in a BCA protein assay according to the manufacturer's instructions, using a bovine serum albumin (BSA) standard curve. The measured decrease in α-synuclein monomer concentration was used to determine the concentration of fibrils in the 72 h fibril reaction mixture. […]
These direct binding assays used a fixed concentration of either fibrils or PD/AD tissue and the radioligand (e.g., [^18F]28) and varying concentration ranges of corresponding homologous non-radiolabeled standard reference compound. […] Reactions were incubated at 37° C. for 1 h before quantifying bound radioligand. […]

Compound: COc1ccc2nc(-c3csc(C=O)c3)ccc2c1 [TZ55-81]
- Kd: 0.029 µM
